Test results as given in patent publication US8293979B2, “Weed controller metabolism proteins, genes, thereof and use of the same” (Sumitomo Chemical Company, Limited, priority 2001, dated 2012).

Assays:
[1] = test system: present invention protein (A20); experiment: Metabolism of compounds by the present invention protein (A20), reaction solution, HPLC; type: in vitro ADME, Streptomyces lanatus IFO 12787T; conditions: 12.5 ppm of compound, components A, B, C, 20 μl supernatant fraction of Example 57(2), 30° C. for 10 minutes
[2] = test system: present invention protein (A13); experiment: Metabolism of compounds by the present invention protein (A13), reaction solution, HPLC; type: in vitro ADME, Streptomyces thermocoerulesces IFO 14273t; conditions: 5 ppm of compound, components A, B, C, 20 μl supernatant fraction of Example 36(2), 30° C. for 10 minutes
[3] = test system: present invention protein (A3); experiment: Metabolism of compounds by the present invention protein (A3), reaction solution, HPLC; type: in vitro ADME, Streptomyces testaceus ATCC21469; conditions: 5 ppm of compound, components A, B, C, 20 μl supernatant fraction of Example 12(2), 30° C. for 10 minutes
[4] = test system: present invention protein (A11); experiment: Metabolism of compounds by the present invention protein (A11), reaction solution, HPLC; type: in vitro ADME, Streptomyces nogalator IFO13445; conditions: 5 ppm of compound, components A, B, C, 20 μl supernatant fraction of Example 32(2), 30° C. for 10 minutes
Procedure: There was prepared 100 μl of a reaction solution of 50 mM potassium phosphate buffer (pH7.0) containing 5 ppm of compound (XII), 3 mM of […] (hereinafter, referred to as “component A”) (Oriental Yeast Company), 1 mg/ml of a ferredoxin derived from spinach (hereinafter referred to as “component B”) (Sigma Company), 0.15 U/ml of ferredoxin reductase (hereinafter, referred to as “component C”) (Sigma Company) and 20 μl of the supernatant fraction recovered in Example 4(2). The reaction solution was maintained at 30° C. for 10 minutes. Further, there was prepared and maintained similarly 100 μl of a reaction solution of a 50 mM potassium phosphate buffer (pH 7.0) having no addition of at least one component utilized in the composition of the above reaction solution, selected from component A, component B, component C and the supernatant fraction prepared in Example 4(2). Ten microliters (10 μl) of 2N HCl and 500 μl of ethyl acetate were added and mixed into each of the reaction solutions after the maintenance. The resulting reaction solutions were centrifuged at 8,000×g to recover 490 μl of the ethyl acetate layer. After drying the ethyl acetate layers under reduced pressure, the residue was dissolved in 100 μl of 50 mM of potassium phosphate buffer (pH7.0). Forty microliters (40 μl) of the fraction solutions (hereinafter, the fraction solution derived from the reaction solution containing component A, component B, component C and 20 μl of supernatant fraction recovered in Example 4(2) is referred to as “(XII) metabolism solution (A1);” further, the fraction solution derived from the reaction solution containing no component A, no component B, no component C and no supernatant fraction recovered in Example 4(2) is referred to as “(XII) control solution (A1)”) were analyzed on a HPLC. Compared to the concentration of compound (XII) detected from (XII) control solution (A1), the concentration of compound (XII) detected from (XII) metabolism solution (A1) was lower. Further a peak, which was not detected from the (XII) control solution (A1), was detected from the (XII) metabolism solution (A1). Mass spectrometry was conducted for the compound contained in such a peak. […]
Other than utilizing 20 μl of the supernatant fraction recovered in Example 32(2) instead of 20 μl of the supernatant fraction recovered in Example 4(2), the reaction solutions were prepared and maintained in accordance with the method described in Example 41(2). […] Compared to the concentration of compound (XII) detected from (XII) control solution (A11), the concentration of compound (XII) detected from (XII) metabolism solution (A11) was lower. Further a peak, which was not detected from the (XII) control solution (A11), was detected from the (XII) metabolism solution (A11). […]

[5] = test system: present invention protein (A12); experiment: Metabolism of compounds by the present invention protein (A12), reaction solution, HPLC; type: in vitro ADME, Streptomyces tsusimaensis IFO 13782; conditions: 5 ppm of compound, components A, B, C, 20 μl supernatant fraction of Example 34(2), 30° C. for 10 minutes
[6] = test system: present invention protein (A21); experiment: Metabolism of compounds by the present invention protein (A21), reaction solution, HPLC; type: in vitro ADME, Streptomyces misawanensis IFO 13855T; conditions: 12.5 ppm of compound, components A, B, C, 20 μl supernatant fraction of Example 59(2), 30° C. for 10 minutes
[7] = test system: present invention protein (A1); experiment: Metabolism of compounds by the present invention protein (A1), reaction solution, HPLC; type: in vitro ADME, Streptomyces phaeochromogenes IFO12898; conditions: 5 ppm of compound, components A, B, C, 20 μl supernatant fraction of Example 4(2), 30° C. for 10 minutes
Procedure: There was prepared 100 μl of a reaction solution of 50 mM potassium phosphate buffer (pH7.0) containing 5 ppm of compound (XII), 3 mM of […] (hereinafter, referred to as “component A”) (Oriental Yeast Company), 1 mg/ml of a ferredoxin derived from spinach (hereinafter referred to as “component B”) (Sigma Company), 0.15 U/ml of ferredoxin reductase (hereinafter, referred to as “component C”) (Sigma Company) and 20 μl of the supernatant fraction recovered in Example 4(2). The reaction solution was maintained at 30° C. for 10 minutes. Further, there was prepared and maintained similarly 100 μl of a reaction solution of a 50 mM potassium phosphate buffer (pH 7.0) having no addition of at least one component utilized in the composition of the above reaction solution, selected from component A, component B, component C and the supernatant fraction prepared in Example 4(2). Ten microliters (10 μl) of 2N HCl and 500 μl of ethyl acetate were added and mixed into each of the reaction solutions after the maintenance. The resulting reaction solutions were centrifuged at 8,000×g to recover 490 μl of the ethyl acetate layer. After drying the ethyl acetate layers under reduced pressure, the residue was dissolved in 100 μl of 50 mM of potassium phosphate buffer (pH7.0). Forty microliters (40 μl) of the fraction solutions (hereinafter, the fraction solution derived from the reaction solution containing component A, component B, component C and 20 μl of supernatant fraction recovered in Example 4(2) is referred to as “(XII) metabolism solution (A1);” further, the fraction solution derived from the reaction solution containing no component A, no component B, no component C and no supernatant fraction recovered in Example 4(2) is referred to as “(XII) control solution (A1)”) were analyzed on a HPLC. Compared to the concentration of compound (XII) detected from (XII) control solution (A1), the concentration of compound (XII) detected from (XII) metabolism solution (A1) was lower. Further a peak, which was not detected from the (XII) control solution (A1), was detected from the (XII) metabolism solution (A1). Mass spectrometry was conducted for the compound contained in such a peak. The mass of the compound contained in such a peak was 14 smaller than the mass of compound (XII).
Other than utilizing 5 ppm of compound (XIII) instead of 5 ppm of compound (XII), reaction solutions were prepared and maintained similarly to the method described in Example 41(2). […] Compared to the concentration of compound (XIII) detected from (XIII) control solution (A1), the concentration of compound (XIII) detected from (XIII) metabolism solution (A1) was lower. Further a peak, which was not detected from the (XIII) control solution (A1), was detected from the (XIII) metabolism solution (A1). […]

Cn1c(C(F)(F)F)cc(=O)n(-c2cc(Oc3cccnc3OCC(=O)O)c(Cl)cc2F)c1=O [compound (XII)]
lower: concentration of the compound detected from metabolism solution (A20) compared to control solution (A20) [1] | concentration of the compound detected from metabolism solution (A13) compared to control solution (A13) [2] | concentration of the compound detected from metabolism solution (A3) compared to control solution (A3) [3] | concentration of the compound detected from metabolism solution (A11) compared to control solution (A11) [4] | concentration of the compound detected from metabolism solution (A12) compared to control solution (A12) [5] | concentration of the compound detected from metabolism solution (A21) compared to control solution (A21) [6] | concentration of the compound detected from metabolism solution (A1) compared to control solution (A1) [7]

Cn1c(C(F)(F)F)cc(=O)n(-c2cc(Oc3ccccc3OCC(=O)O)c(Cl)cc2F)c1=O [compound (XIII)]
lower: concentration of the compound detected from metabolism solution (A20) compared to control solution (A20) [1] | concentration of the compound detected from metabolism solution (A13) compared to control solution (A13) [2] | concentration of the compound detected from metabolism solution (A3) compared to control solution (A3) [3] | concentration of the compound detected from metabolism solution (A11) compared to control solution (A11) [4] | concentration of the compound detected from metabolism solution (A12) compared to control solution (A12) [5] | concentration of the compound detected from metabolism solution (A21) compared to control solution (A21) [6] | concentration of the compound detected from metabolism solution (A1) compared to control solution (A1) [7]
